Assay results reported in paper PMC5218480 (PLoS ONE, 2017).

Test system: MV-4-11 cells
Test: Gene expression microarray analysis (Affymetrix PrimeView) and GSEA
Type: cell-based, human
Design: RFU PODN (11730768_x_at) / Fold change /veh PODN (11730768_x_at) / RFU LINC00158 (11744669_a_at) / Fold change /veh LINC00158 (11744669_a_at) / RFU DUSP10 (11751237_a_at) / Fold change /veh DUSP10 (11751237_a_at) / RFU ID3 (11757404_x_at) / Fold change /veh ID3 (11757404_x_at) / RFU PLEKHG5 (11737974_s_at) / Fold change /veh PLEKHG5 (11737974_s_at) / RFU LRRC4B (11730491_at) / Fold change /veh LRRC4B (11730491_at) / RFU GIMAP4 (11747438_a_at) / Fold change /veh GIMAP4 (11747438_a_at) / RFU KRT8 (11758183_x_at) / Fold change /veh KRT8 (11758183_x_at) / RFU CNN1 (11734310_a_at) / Fold change /veh CNN1 (11734310_a_at) / RFU VPS37D (11726825_at) / Fold change /veh VPS37D (11726825_at) / RFU C10orf10 (11716522_x_at) / Fold change /veh C10orf10 (11716522_x_at) / RFU KIR2DL2 /// KIR2DL4 /// KIR2DL5A /// KIR2DL5B /// KIR2DS1 /// KIR2DS2 /// KIR2DS3 /// KIR2DS4 /// KIR3DL3 /// KIR3DL3 /// KIR3DS1 (11738374_at) / Fold change /veh KIR2DL2 /// KIR2DL4 /// KIR2DL5A /// KIR2DL5B /// KIR2DS1 /// KIR2DS2 /// KIR2DS3 /// KIR2DS4 /// KIR3DL3 /// KIR3DL3 /// KIR3DS1 (11738374_at) / RFU C1QL1 (11718748_at) / Fold change /veh C1QL1 (11718748_at) / RFU TMPRSS4 (11747572_a_at) / Fold change /veh TMPRSS4 (11747572_a_at) / RFU HAMP (11756126_x_at) / Fold change /veh HAMP (11756126_x_at) / RFU RNFT2 (11725882_a_at) / Fold change /veh RNFT2 (11725882_a_at) / RFU NR4A2 (11747474_a_at) / Fold change /veh NR4A2 (11747474_a_at) / RFU ABCC12 (11746883_a_at) / Fold change /veh ABCC12 (11746883_a_at) / RFU TMEM136 (11760407_x_at) / Fold change /veh TMEM136 (11760407_x_at) / RFU CLDN22 /// WWC2 (11732394_at) / Fold change /veh CLDN22 /// WWC2 (11732394_at) / RFU HLA-DPB1 (11760878_x_at) / Fold change /veh HLA-DPB1 (11760878_x_at) / RFU SPINT1 (11716480_a_at) / Fold change /veh SPINT1 (11716480_a_at) / RFU GAP43 (11754022_s_at) / Fold change /veh GAP43 (11754022_s_at) / RFU A4GNT (11735810_at) / Fold change /veh A4GNT (11735810_at) / RFU PRB3 (11715151_x_at) / Fold change /veh PRB3 (11715151_x_at) / RFU TUBB4B (11761932_at) / Fold change /veh TUBB4B (11761932_at) / RFU CAPN14 (11732068_a_at) / Fold change /veh CAPN14 (11732068_a_at) / RFU TMCC2 (11721928_a_at) / Fold change /veh TMCC2 (11721928_a_at) / RFU IRGQ (11745062_a_at) / Fold change /veh IRGQ (11745062_a_at) / RFU FAM174B (11720279_a_at) / Fold change /veh FAM174B (11720279_a_at) / RFU TMPRSS4 (11748680_a_at) / Fold change /veh TMPRSS4 (11748680_a_at) / RFU FAM212B (11763350_a_at) / Fold change /veh FAM212B (11763350_a_at) / RFU PLEKHG5 (11743358_a_at) / Fold change /veh PLEKHG5 (11743358_a_at) / RFU ZSCAN30 (11745921_a_at) / Fold change /veh ZSCAN30 (11745921_a_at) / RFU CMKLR1 (11741424_a_at) / Fold change /veh CMKLR1 (11741424_a_at) / RFU LOC101060620 /// MAPK8IP1 (11723275_at) / Fold change /veh LOC101060620 /// MAPK8IP1 (11723275_at) / RFU SPTSSB (11747773_x_at) / Fold change /veh SPTSSB (11747773_x_at) / RFU PRSS12 (11739890_at) / Fold change /veh PRSS12 (11739890_at) / RFU BIN1 (11741810_x_at) / Fold change /veh BIN1 (11741810_x_at) / RFU WNT11 (11732464_a_at) / Fold change /veh WNT11 (11732464_a_at) / RFU C10orf10 (11716521_a_at) / Fold change /veh C10orf10 (11716521_a_at) / RFU C5orf56 (11738089_at) / Fold change /veh C5orf56 (11738089_at) / RFU CYB561 (11721691_x_at) / Fold change /veh CYB561 (11721691_x_at) / RFU ANKRD19P (11752326_a_at) / Fold change /veh ANKRD19P (11752326_a_at) / RFU OR2T12 /// OR2T33 /// OR2T8 (11738714_s_at) / Fold change /veh OR2T12 /// OR2T33 /// OR2T8 (11738714_s_at) / RFU VCAN (11748164_a_at) / Fold change /veh VCAN (11748164_a_at) / RFU JSRP1 (11732532_at) / Fold change /veh JSRP1 (11732532_at) / RFU KRTAP10-11 (11738290_x_at) / Fold change /veh KRTAP10-11 (11738290_x_at) / RFU MYO3A (11730013_a_at) / Fold change /veh MYO3A (11730013_a_at) / RFU EBF3 (11725865_a_at) / Fold change /veh EBF3 (11725865_a_at) / RFU CAMK2N1 (11719241_x_at) / Fold change /veh CAMK2N1 (11719241_x_at) / RFU C5orf56 (11738088_a_at) / Fold change /veh C5orf56 (11738088_a_at) / RFU OLFML3 (11715873_a_at) / Fold change /veh OLFML3 (11715873_a_at) / RFU LOC100653217 /// NTM (11731650_a_at) / Fold change /veh LOC100653217 /// NTM (11731650_a_at) / RFU MAPK11 (11762145_a_at) / Fold change /veh MAPK11 (11762145_a_at) / RFU FIZ1 (11724087_x_at) / Fold change /veh FIZ1 (11724087_x_at) / RFU OASL (11726364_x_at) / Fold change /veh OASL (11726364_x_at) / RFU SOX15 (11748057_x_at) / Fold change /veh SOX15 (11748057_x_at) / RFU CD79A (11719716_a_at) / Fold change /veh CD79A (11719716_a_at) / RFU HIST1H1D (11736915_at) / Fold change /veh HIST1H1D (11736915_at) / RFU CASKIN2 (11723855_a_at) / Fold change /veh CASKIN2 (11723855_a_at) / RFU LOC730098 (11760151_x_at) / Fold change /veh LOC730098 (11760151_x_at) / RFU OR4N2 (11742367_at) / Fold change /veh OR4N2 (11742367_at) / RFU PRRT2 (11749266_a_at) / Fold change /veh PRRT2 (11749266_a_at) / RFU SNX32 (11753110_a_at) / Fold change /veh SNX32 (11753110_a_at) / RFU CDHR5 (11726645_a_at) / Fold change /veh CDHR5 (11726645_a_at) / RFU RCAN1 (11760418_a_at) / Fold change /veh RCAN1 (11760418_a_at) / RFU FAM167A (11723789_a_at) / Fold change /veh FAM167A (11723789_a_at) / RFU FAM26E (11764081_at) / Fold change /veh FAM26E (11764081_at) / RFU ISYNA1 (11749810_s_at) / Fold change /veh ISYNA1 (11749810_s_at) / RFU ACY1 (11761880_at) / Fold change /veh ACY1 (11761880_at) / RFU 11764098_at / Fold change /veh 11764098_at / RFU SAMD14 (11745864_x_at) / Fold change /veh SAMD14 (11745864_x_at) / RFU NPB (11741838_a_at) / Fold change /veh NPB (11741838_a_at) / RFU TMPRSS6 (11731388_a_at) / Fold change /veh TMPRSS6 (11731388_a_at) / RFU KRTAP10-2 (11738614_at) / Fold change /veh KRTAP10-2 (11738614_at) / RFU ARHGAP8 /// PRR5-ARHGAP8 (11727945_x_at) / Fold change /veh ARHGAP8 /// PRR5-ARHGAP8 (11727945_x_at) / RFU KRTAP5-7 /// NADSYN1 (11734609_at) / Fold change /veh KRTAP5-7 /// NADSYN1 (11734609_at) / RFU RASL12 (11751679_a_at) / Fold change /veh RASL12 (11751679_a_at) / RFU CDKN2B (11736163_a_at) / Fold change /veh CDKN2B (11736163_a_at) / RFU PRF1 (11729649_at) / Fold change /veh PRF1 (11729649_at) / RFU, ZNF638 /// ZNF638-IT1 / Fold change vs veh, ZNF638 /// ZNF638-IT1 / RFU, PANK3 / Fold change vs veh, PANK3 / RFU, SH3YL1 / Fold change vs veh, SH3YL1 / RFU, ZEB2 / Fold change vs veh, ZEB2 / RFU, NRIP1 / Fold change vs veh, NRIP1 / RFU, PTTG1IP / Fold change vs veh, PTTG1IP / RFU, CAPN2 / Fold change vs veh, CAPN2 / RFU, MED14 / Fold change vs veh, MED14 / RFU, SNORA58 / Fold change vs veh, SNORA58 / RFU, C1orf63 / Fold change vs veh, C1orf63 / RFU, LRRFIP1 / Fold change vs veh, LRRFIP1 / RFU, NDUFAF7 / Fold change vs veh, NDUFAF7 / RFU, SLC12A2 / Fold change vs veh, SLC12A2 / RFU, IBTK / Fold change vs veh, IBTK / RFU, ESF1 / Fold change vs veh, ESF1 / Fold change vs veh, TMEM50B / RFU, TAOK1 / Fold change vs veh, TAOK1 / RFU, ACBD3 / Fold change vs veh, ACBD3 / RFU, TMA16 / Fold change vs veh, TMA16 / RFU, RWDD3 / Fold change vs veh, RWDD3 / RFU, BCAT1 / Fold change vs veh, BCAT1 / RFU, EDEM3 / Fold change vs veh, EDEM3 / RFU, TMEM33 / Fold change vs veh, TMEM33 / RFU, WDR75 / Fold change vs veh, WDR75 / RFU, AHCTF1 / Fold change vs veh, AHCTF1 / RFU, TFRC / Fold change vs veh, TFRC / RFU, ZDHHC17 / Fold change vs veh, ZDHHC17 / RFU, NOM1 / Fold change vs veh, NOM1 / RFU, ARL8B / Fold change vs veh, ARL8B / RFU, ZBTB11 / Fold change vs veh, ZBTB11 / RFU, TAMM41 / Fold change vs veh, TAMM41 / RFU, KIAA1704 /// LOC100996395 / Fold change vs veh, KIAA1704 /// LOC100996395 / RFU, ING1 / Fold change vs veh, ING1 / RFU, TRMT61B / Fold change vs veh, TRMT61B / RFU, FUBP3 / Fold change vs veh, FUBP3 / RFU, TP53 / Fold change vs veh, TP53 / RFU, TNKS2 / Fold change vs veh, TNKS2 / RFU, ZFP14 / Fold change vs veh, ZFP14 / RFU, ACTR2 / Fold change vs veh, ACTR2 / RFU, PPP3R1 / Fold change vs veh, PPP3R1 / RFU, PIK3R1 / Fold change vs veh, PIK3R1 / RFU, HNRNPA1 / Fold change vs veh, HNRNPA1 / RFU, RNF170 / Fold change vs veh, RNF170 / RFU, ZNF28 / Fold change vs veh, ZNF28 / RFU, RNGTT / Fold change vs veh, RNGTT / RFU, OGT / Fold change vs veh, OGT / RFU, BRD1 / Fold change vs veh, BRD1 / RFU, MARS / Fold change vs veh, MARS / RFU, ZNF655 / Fold change vs veh, ZNF655 / RFU, FAHD1 / Fold change vs veh, FAHD1 / RFU, BDP1 / Fold change vs veh, BDP1 / RFU, LRRCC1 / Fold change vs veh, LRRCC1 / RFU, ARID1A / Fold change vs veh, ARID1A / RFU, ZNF146 / Fold change vs veh, ZNF146 / RFU, ZNF330 / Fold change vs veh, ZNF330 / RFU, GPN3 / Fold change vs veh, GPN3 / RFU, C9orf123 / Fold change vs veh, C9orf123 / RFU, N4BP2L2 / Fold change vs veh, N4BP2L2 / RFU, ARFIP1 / Fold change vs veh, ARFIP1 / RFU, FAM179B / Fold change vs veh, FAM179B / RFU, BCL10 / Fold change vs veh, BCL10 / RFU, UHRF1BP1L / Fold change vs veh, UHRF1BP1L / RFU, BET1 / Fold change vs veh, BET1 / RFU, CNOT2 / Fold change vs veh, CNOT2 / RFU, ZNF268 / Fold change vs veh, ZNF268 / Fold change vs veh, ZNF507 / RFU, DGCR2 / Fold change vs veh, DGCR2 / RFU, WDSUB1 / Fold change vs veh, WDSUB1 / Fold change vs veh, HSP90B1 /// MIR3652 / RFU, ADSS / Fold change vs veh, ADSS / RFU, GK / Fold change vs veh, GK / RFU, ZNF148 / Fold change vs veh, ZNF148 / RFU, TAF9 / Fold change vs veh, TAF9 / RFU, SLC1A5 / Fold change vs veh, SLC1A5 / RFU, SLMO2 / Fold change vs veh, SLMO2 / RFU, ABCC4 / Fold change vs veh, ABCC4 / RFU, LOC101060439 /// RAP1B / Fold change vs veh, LOC101060439 /// RAP1B / RFU, RFX7 / Fold change vs veh, RFX7 / RFU, GTPBP10 / Fold change vs veh, GTPBP10 / RFU, CNEP1R1 / Fold change vs veh, CNEP1R1 / RFU, BIVM-ERCC5 /// ERCC5 / Fold change vs veh, BIVM-ERCC5 /// ERCC5 / RFU, ILF3 / Fold change vs veh, ILF3 / RFU 11762660_at / Fold change /veh 11762660_at / RFU VCAN (11757783_s_at) / Fold change /veh VCAN (11757783_s_at) / RFU DDX43 (11728927_at) / Fold change /veh DDX43 (11728927_at) / RFU KRT8 (11758188_x_at) / Fold change /veh KRT8 (11758188_x_at) / RFU NKD1 (11759106_at) / Fold change /veh NKD1 (11759106_at) / RFU SRD5A1 (11742802_a_at) / Fold change /veh SRD5A1 (11742802_a_at) / RFU TPSAB1 /// TPSB2 (11721975_s_at) / Fold change /veh TPSAB1 /// TPSB2 (11721975_s_at) / RFU GSTM3 (11746129_a_at) / Fold change /veh GSTM3 (11746129_a_at) / RFU IL23R (11737362_x_at) / Fold change /veh IL23R (11737362_x_at) / RFU TMEM51 (11727254_a_at) / Fold change /veh TMEM51 (11727254_a_at) / RFU PIWIL2 (11732686_x_at) / Fold change /veh PIWIL2 (11732686_x_at) / RFU ORM1 (11744905_x_at) / Fold change /veh ORM1 (11744905_x_at) / RFU CCDC152 (11743942_at) / Fold change /veh CCDC152 (11743942_at) / RFU ECM1 (11717891_a_at) / Fold change /veh ECM1 (11717891_a_at) / RFU IL23R (11748794_a_at) / Fold change /veh IL23R (11748794_a_at) / RFU TNFAIP8L3 (11732012_x_at) / Fold change /veh TNFAIP8L3 (11732012_x_at) / RFU MBOAT4 (11741988_at) / Fold change /veh MBOAT4 (11741988_at) / RFU 11764193_at / Fold change /veh 11764193_at / RFU TMEM53 (11763286_at) / Fold change /veh TMEM53 (11763286_at) / RFU MAGEB2 (11727129_at) / Fold change /veh MAGEB2 (11727129_at) / RFU TMEM200A (11744735_a_at) / Fold change /veh TMEM200A (11744735_a_at) / RFU CCDC152 (11751479_a_at) / Fold change /veh CCDC152 (11751479_a_at) / RFU FAM211A (11726209_a_at) / Fold change /veh FAM211A (11726209_a_at) / RFU RGS16 (11746705_a_at) / Fold change /veh RGS16 (11746705_a_at) / RFU VCAN (11755009_s_at) / Fold change /veh VCAN (11755009_s_at) / RFU RHOB (11743442_s_at) / Fold change /veh RHOB (11743442_s_at) / RFU RGS16 (11720943_a_at) / Fold change /veh RGS16 (11720943_a_at) / RFU RGS16 (11720944_at) / Fold change /veh RGS16 (11720944_at) / RFU, VPS4B / Fold change vs veh, VPS4B / RFU, CREB1 / Fold change vs veh, CREB1 / RFU, DNAJC13 / Fold change vs veh, DNAJC13 / RFU, GNAQ / Fold change vs veh, GNAQ / RFU, CDK5R1 / Fold change vs veh, CDK5R1 / RFU, ZRANB3 / Fold change vs veh, ZRANB3 / RFU, CUL4A / Fold change vs veh, CUL4A / RFU, CCNY / Fold change vs veh, CCNY / RFU, UFL1 / Fold change vs veh, UFL1 / RFU, COG3 / Fold change vs veh, COG3 / RFU, DIAPH2 / Fold change vs veh, DIAPH2 / RFU, SKA2 / Fold change vs veh, SKA2 / RFU, AFF3 / Fold change vs veh, AFF3 / RFU, LMF1 / Fold change vs veh, LMF1 / RFU, IPO11 / Fold change vs veh, IPO11 / RFU, DFFB / Fold change vs veh, DFFB / RFU, FOXP1 / Fold change vs veh, FOXP1 / RFU, CARD8 / Fold change vs veh, CARD8 / RFU, STRN3 / Fold change vs veh, STRN3 / RFU, ADK / Fold change vs veh, ADK / RFU, RASSF2 / Fold change vs veh, RASSF2 / RFU, WIPF1 / Fold change vs veh, WIPF1 / RFU, LARP1B / Fold change vs veh, LARP1B / RFU, RASA1 / Fold change vs veh, RASA1 / RFU, RB1 / Fold change vs veh, RB1 / RFU, PPFIA1 / Fold change vs veh, PPFIA1 / RFU, MAT2A / Fold change vs veh, MAT2A / RFU, CCT5 / Fold change vs veh, CCT5 / RFU, WDR92 / Fold change vs veh, WDR92 / RFU, CUX1 / Fold change vs veh, CUX1 / RFU, TTC7A / Fold change vs veh, TTC7A / RFU, TMEM135 / Fold change vs veh, TMEM135 / RFU, DEPTOR / Fold change vs veh, DEPTOR / RFU, CPM / Fold change vs veh, CPM / RFU, DNAJB6 / Fold change vs veh, DNAJB6 / RFU, CACNA2D3 / Fold change vs veh, CACNA2D3 / RFU, DTX4 / Fold change vs veh, DTX4 / RFU, TFCP2 / Fold change vs veh, TFCP2 / RFU, GMCL1 /// GMCL1P1 / Fold change vs veh, GMCL1 /// GMCL1P1 / RFU, AEBP2 / Fold change vs veh, AEBP2 / RFU, SNHG1 /// SNORD22 /// SNORD25 /// SNORD26 /// SNORD27 /// SNORD28 /// SNORD29 /// SNORD31 / Fold change vs veh, SNHG1 /// SNORD22 /// SNORD25 /// SNORD26 /// SNORD27 /// SNORD28 /// SNORD29 /// SNORD31 / Fold change (Aza/veh), C12orf56 (ProbeSet 11735607_a_at) / Fold change (ACY-1035/veh), C12orf56 (ProbeSet 11735607_a_at) / Fold change (Aza/veh), FGFR1OP (ProbeSet 11751329_s_at) / Fold change (ACY-1035/veh), FGFR1OP (ProbeSet 11751329_s_at) / Fold change (Aza/veh), VPS36 (ProbeSet 11739960_a_at) / Fold change (ACY-1035/veh), VPS36 (ProbeSet 11739960_a_at) / RFU SYPL1 (11715823_x_at) / Fold change /veh SYPL1 (11715823_x_at) / RFU IGFBP7 (11715501_s_at) / Fold change /veh IGFBP7 (11715501_s_at) / RFU REEP3 (11722064_at) / Fold change /veh REEP3 (11722064_at) / RFU IGLL1 (11728026_x_at) / Fold change /veh IGLL1 (11728026_x_at): dose or concentration left out as unconfirmed
Conditions: MV-4-11 cells, 48 hours

Q: Nc1ccc(-c2cccs2)cc1NC(=O)c1ccc2c(c1)cc(C1CC1)n2CCN1CCOCC1 [ACY-1035] was tested. Which “Fold change /veh NR4A2 (11747474_a_at)” value did it give?
A: 0.99
